The values that follow are results of earlier work, collected in US20070026067A1, “Liquid formulations for controlled delivery of benzisoxazole derivatives” (priority 2005, published 2007).

The conditions of data set [1]: in vivo.

For the compound `Cc1nc2n(c(=O)c1CCN1CCC(c3noc4cc(F)ccc34)CC1)CCCC2O` (stereo not drawn) [Paliperidone], the solubility in water result is on record as “practically insoluble”. The half-life result in data set [1] is “about one”.
As to `Cc1nc2n(c(=O)c1CCN1CCC(c3noc4cc(F)ccc34)CC1)CCCC2` [Risperidone], the solubility in water result is reported as “practically insoluble”.
